Results: patent publication US20240400529A1, “COMPOSITIONS AND METHODS FOR THE PREVENTION AND/OR TREATMENT OF MITOCHONDRIAL DISEASE, INCLUDING FRIEDREICH'S ATAXIA” (Stealth BioTherapeutics Inc., priority 2019, published 2024)
Entries after “also recorded” stand apart in the source; their conditions may differ.

How the values were obtained:
[1] = tested on: HepG2 human hepatocarcinoma cells; experiment: Rotenone ATP Assay (Complex I by-pass); type: cell-based; settings: for Complex I by-pass activity / restoring ATP production, in words: summary statements also cover the Oxygraph assay
Method: This assay has been adapted from Haefeli R H, Erb M, Gemperli A C, Robay D, Courdier Fruh I, et al. (2011) NQO1-Dependent Redox Cycling of Idebenone: Effects on Cellular Redox Potential and Energy Levels. PLOS ONE 6 (3): e17963. HepG2 human hepatocarcinoma cells were co-incubated with the electron transport chain Complex I toxin rotenone+/−compounds of interest and the corresponding effect on ATP synthesis was measured with a bioluminescent substrate.
In brief, HepG2 cells were plated at 25,000 cells per well in low glucose (1 gram/Liter) DMEM medium+10% fetal calf serum and incubated for 24 hours. The following day, the media was decanted and subsequently replaced with glucose free/serum free DMEM which has been supplemented with 50 micromolar rotenone and compound of interest. Serial dilutions of compound were prepared in 3× dilutions beginning at 25 micromolar. The cells were incubated for 60 minutes in a humidified tissue culture incubator. Following incubation, ATP levels were quantified via bioluminescent assay (Promega […] Glo Assay kit) and readings were captured on a standard microplate reader.
ATP bioluminescence is plotted versus the log of compound of interest and data were used to generate EC50 values. Curve fitting was performed using a sigmoidal dose response curve fit function (GraphPad Prism software).
Robustness of curve fit was assessed as a quality control measure, with an R squared value of at least 0.80 being required for a successful curve fit. Compounds of interest showing an increase in ATP bioluminescence relative to vehicle control were verified in an independent biological replicate of n=3 technical replicates per dose.
This assay is a direct measure of the ability of compounds of interest to restore ATP production under conditions of inhibition of Complex I of the mitochondrial electron transport chain. As the majority of ATP produced via the electron transport chain is thought to derive from Complex I activity, significant impairment in Complex I function has dire biological consequences. Of note, Complex I mutations are thought to drive pathophysiology in multiple mitochondrial diseases, including Leigh syndrome and Leber's Hereditary Optic Neuropathy (LHON), while diminished Complex I activity and the resultant attenuation of ATP production has been shown in neurodegenerative diseases, including Friedreich's Ataxia, Parkinson's Disease and Huntington's Disease.

[2] = tested on: GM03665 cells (fibroblasts from a subject with Friedreich's ataxia); experiment: RSL3 Toxicity Assay (RSL3 Assay); type: cell-based, human
Method: In brief, GM03665 cells (Coriell Institute) were seeded in 96-well plates (Sarstedt) in DMEM cell culture media containing 10% Fetal Bovine serum and 1% Penicillin-Streptomycin (Pen-Strep) antibiotic mix at the amount of 2×10^4/mL (100 μL or 2×10^3 cells per well). Cells were left to rest overnight at 37° C. in a humidified atmosphere with 5% CO2 to allow attachment of the cells to the culture plate. Test compounds were prepared as DMSO stocks (10 mM) and were serially diluted in cell culture media to obtain 2× working solutions. Cell media was discarded and replaced by 50 μL of test compound solutions or cell media with vehicle for control wells. Within 15 minutes, 2× working solution (4 μM) of 1S,3R-RSL3 (CAS #1219810-16-8, Sigma-Aldrich) (diluted from 5 mM DMSO stock in cell culture media) was added. Final reaction volume was 100 μL and final DMSO concentration in reaction was kept below 0.2% (v/v) and equal in all wells. Final RSL3 concentration was 2 μM and test compound final concentrations in reaction were up to 1000 nM. After 24 hours of incubation cell viability was assessed by MTT test. MTT (Sigma-Aldrich) solution 1 mg/mL in 1×PBS (pH=7,4) was prepared 1 hour before the assay and filtered through Filtropur S 0.2 filters (Sarstedt). Cell media with test compounds was discarded and 100 μL of MTT solution was added to cells. The plates were incubated for 2 hours at +37° C. Thereafter, the MTT solution was removed and 100 μL of isopropanol was added to dissolve sediment. Absorption at 570 and 650 nm was measured using Hidex Sense microplate reader.

[3] = tested on: frataxin deficient fibroblasts (Friedreich's ataxia patient, GM03665); type: cell-based
Nrf-2 responsive genes = experiment: Nrf-2 Activation Assay (Nrf-2 Assay); type: cell-based, human; settings: FIG. 7; 1 μM, 24 hours
Method: This assay was developed internally and was designed to determine if the novel test compounds disclosed herein active Nrf-2 and thereby promote resolution of inflammation by the mechanism believed to be responsible for the activity of omaveloxolone.
Briefly, GM03665 Eriedreich Ataxia patient fibroblasts were grown in 12 Well Plates (TC Cell+F) (Sarstedt, Nümbrecht Germany), at a density of 12×10^4 cells/per well in DMEM/F12 (Gibco, ThermoFisher Scientific, Waltham, MA, USA) cell media supplemented with 10% FBS and 1% Pen/Strep. Cells were left to rest overnight at 37° C. in a humidified atmosphere with 5% CO2 to allow attachment of the cells to the culture plate. Before continuing assay visual inspection of each well was done by light microscopy to detect any possible bacterial and fungal contamination. […] After incubation, cell media was removed and total RNA from the cells was isolated using E.Z.N.A.® Total RNA Kit I (Omega Bio-tek, Norcross, Georgia, USA) spin columns, and first-strand cDNA synthesis was carried out using a High Capacity cDNA Reverse Transcription Kit (Applied Biosystems™, Foster City, CA) following the manufacturer's instructions. qPCR analysis of gene expression was performed by mixing SYBR® Green Master Mix (Applied Biosystems™) with synthesized cDNA and forward and reverse primers. […] (60 cycles), and 95° C. for 60 seconds, followed by melt curve analysis at 72-95° C., 0.3° C./sec. The relative expression levels for each gene were calculated with the ΔΔCt method and normalized to the expression of REEP5 and SNRPD3 genes.

lipoxygenase-15 enzyme = lipoxygenase-15 enzyme (Glycine max (Soybean) (Glycine hispida), UniProt P08170); experiment: Lipoxygenase-15 Assay (LO-15 Assay); type: biochemical; settings: reduced forms tested
intact HepG2 cells = experiment: Rotenone Oxygraph Assay (high-resolution respirometry); type: cell-based, human
Method: The Oxygraph-2k (O2k, OROBOROS INSTRUMENTS, Austria) was used for measurements of respiration of intact cells. The respirometry was performed in Dulbecco's Modified Eagle Medium (DMEM) high glucose without supplements. All experiments were performed at 37° C.
HepG2 cells (ATCC collection code HB-8065™) were cultured in 10 cm^2 culture dishes in DMEM high glucose medium supplemented with 10% fetal bovine serum (FBS) and 100 units/mL penicillin and 100 μg/mL streptomycin until approximately 90% confluence was reached. Immediately prior to performing the respirometric assay, the cells were washed with media without FBS, trypsinized and resuspended in DMEM high glucose without FBS.
The final concentration of intact cells in the O2k-chamber was 0.5.10^6/mL. After stabilization of respiration, the Complex I inhibitor, rotenone, at 1 μM final concentration was added to inhibit electron flux via Complex I. Then, compound to be tested was added at 10 μM final concentration, and the change in respiration rate of intact cells was monitored.

How did the “Complex I by-pass activity / restoring ATP production, in words” value [1] turn out when `CC(C)=CCC/C(C)=C/CC/C(C)=C/CC[C@@](C)(O)CCC1=C(C)C(=O)C(C)=C(C)C1=O` (stereo in doubt) [Vatiquinone, reference compound] was run?
Its value is “not”.

And the “activity in the RSL3 Assay, in words” value [2]?
The value was “active”.

What about the “protection from BSO induced cell death / ferroptosis, in words” value [3] of the same molecule?
Its value is “ability to circumvent BSO induced cell death”.

Which results are given for `Cc1c(C)c2c(c(C)c1O)CC[C@@](C)(CCC=C(F)F)O2` [Compound 67, (R)-2-(4,4-difluorobut-3-en-1-yl)-2,5,7,8-tetramethylchroman-6-ol]?
Complex I by-pass activity / restoring ATP production, in words [1]: possess both activities; protection from BSO induced cell death / ferroptosis, in words [3]: possess both activities

`CC1=C(C)C(=O)C(CC[C@](C)(O)CC/C=C(\C)CC/C=C(\C)CCC=C2COC2)=C(C)C1=O` [Compound E, 2-((R,6E,10E)-3-hydroxy-3,7,11-trimethyl-14-(oxetan-3-ylidene)tetradeca-6,10-dien-1-yl)-3,5,6-trimethylcyclohexa-2,5-diene-1,4-dione] was tested. Which “activation of Nrf-2 responsive genes / pathway, in words” value (Nrf-2 responsive genes) did it give?
Its value is “do not activate”.

And the “Complex I by-pass activity / restoring ATP production, in words” value [1]?
The value was “possess both activities”.

What about the “activity in the RSL3 Assay, in words” value [2] of the same molecule?
Its value is “active; also recorded: able to prevent ferroptotic cell death”.

What about the “lipoxygenase-15 inhibition, in words” value (lipoxygenase-15 enzyme) of the same molecule?
The value was “outside of the range of the assay”.

What about the “Rotenone Oxygraph Assay % Increase (Table 7)” value (intact HepG2 cells; 1 μM rotenone, 10 μM compound) of the same molecule?
The value was 37.9 +/− 10.7%.

What about the “protection from BSO induced cell death / ferroptosis, in words” value [3] of the same molecule?
Its value is “possess both activities; also recorded: able to prevent ferroptotic cell death; also recorded: active”.

What does the source list for `CC1=C(C)C(=O)C(CC[C@](C)(O)CC/C=C(\C)CCC=C(F)F)=C(C)C1=O` [Compound H, (R,E)-2-(11,11-difluoro-3-hydroxy-3,7-dimethylundeca-6,10-dien-1-yl)-3,5,6-trimethylcyclohexa-2,5-diene-1,4-dione]?
activation of Nrf-2 responsive genes / pathway, in words (Nrf-2 responsive genes): do not activate; activity in the RSL3 Assay, in words [2]: active; also recorded: able to prevent ferroptotic cell death; lipoxygenase-15 inhibition, in words (lipoxygenase-15 enzyme): effective inhibitors; Rotenone Oxygraph Assay % Increase (Table 7) (intact HepG2 cells; 1 μM rotenone, 10 μM compound): 54.3 +/− 13%; protection from BSO induced cell death / ferroptosis, in words [3]: able to prevent ferroptotic cell death; also recorded: active

For `CC1=C(C)C(=O)C(CC[C@@](C)(O)CC/C=C(\C)CCC=C(F)F)=C(C)C1=O` [Compound L, (S,E)-2-(11,11-difluoro-3-hydroxy-3,7-dimethylundeca-6,10-dien-1-yl)-3,5,6-trimethylcyclohexa-2,5-diene-1,4-dione], which “activation of Nrf-2 responsive genes / pathway, in words” value (Nrf-2 responsive genes) is on record?
The value was “do not activate”.

And the “Complex I by-pass activity / restoring ATP production, in words” value [1]?
The value was “possess both activities”.

What about the “activity in the RSL3 Assay, in words” value [2] of the same molecule?
The value was “active; also recorded: able to prevent ferroptotic cell death”.

What about the “lipoxygenase-15 inhibition, in words” value (lipoxygenase-15 enzyme) of the same molecule?
Its value is “effective inhibitors”.

And the “Rotenone Oxygraph Assay % Increase (Table 7)” value (intact HepG2 cells; 1 μM rotenone, 10 μM compound)?
The value was 58.6 +/− 15.5%.

And the “protection from BSO induced cell death / ferroptosis, in words” value [3]?
The value was “possess both activities; also recorded: able to prevent ferroptotic cell death; also recorded: active”.

Which results are given for `COC1=C(OC)C(=O)C(CCCCCCCCCCO)=C(C)C1=O` [Idebenone, reference compound]?
Complex I by-pass activity / restoring ATP production, in words [1]: ability to restore ATP production when Complex I is inhibited; Rotenone Oxygraph Assay % Increase (Table 7) (intact HepG2 cells; 1 μM rotenone, 10 μM compound): 70.2 +/− 15%; protection from BSO induced cell death / ferroptosis, in words [3]: very weakly active/borderline inactive

`CC1(C)CC[C@]2(NC(=O)C(C)(F)F)CC[C@]3(C)[C@H](C(=O)C=C4[C@@]5(C)C=C(C#N)C(=O)C(C)(C)[C@@H]5CC[C@]43C)[C@@H]2C1` [Omaveloxolone, reference compound] was tested. Which “activation of Nrf-2 responsive genes / pathway, in words” value (Nrf-2 responsive genes) did it give?
The value was “positive and does”.

What about the “Rotenone ATP Assay EC50, nM (Table 7)” value ([1]; HepG2, 50 micromolar rotenone, 60 minutes) of the same molecule?
The value was “Inactive”.

What about the “Complex I by-pass activity / restoring ATP production, in words” value [1] of the same molecule?
Its value is “not”.

And the “activity in the RSL3 Assay, in words” value [2]?
Its value is “completely inactive”.

What about the “RSL3 Assay EC50, nM (Table 7)” value ([2]; 2 μM RSL3, 24 hours, MTT) of the same molecule?
The value was “Inactive”.

What about the “Mean EC50, RSL3 Assay (Table 3)” value ([2]; 2 μM RSL3, 24 hours, MTT, mean of at least three measurements, unit from Table 7) of the same molecule?
The value was “Inactive”.

What about the “activity in the Rotenone Oxygraph Assay, in words” value (intact HepG2 cells) of the same molecule?
Its value is “inactive”.

What about the “Rotenone Oxygraph Assay % Increase (Table 7)” value (intact HepG2 cells; 1 μM rotenone, 10 μM compound) of the same molecule?
Its value is “Inactive”.

What about the “Percent increase in ATP (Table 4, Rotenone Oxygraph Assay)” value (intact HepG2 cells; 1 μM rotenone, 10 μM compound, change in respiration rate of intact cells) of the same molecule?
The value was “Inactive”.

And the “protection from BSO induced cell death / ferroptosis, in words” value [3]?
Its value is “ability to circumvent BSO induced cell death; also recorded: displayed anti-ferroptotic activity”.
